These are literature values, as cited in US5478810A, “Peptide amides, processes for the preparation thereof and agents containing these as fibrin/thrombin clotting inhibitors” (Behringwerke Aktiengesellschaft, priority 1990, dated 1995).

The data set concerns plasma clotting. As to conditions: relative to GPRP = 1.

No end group written: not given here. *: point of attachment. 4‑hydroxypiperidide = C-terminal 4-hydroxypiperidide, OC1CCN(*)CC1; 3‑methylpiperidide = C-terminal 3-methylpiperidide

Take “GPRP 3-methylpiperidide (GPRP-{3‑methylpiperidide}) [known peptide derivative presented at the XIth American Symposium on Peptides]”: the “relative activity (amount of plasma which is inhibited with a defined amount of inhibitor)” value is recorded as 1.29.

As for GPRP-NH2, the “relative activity (amount of plasma which is inhibited with a defined amount of inhibitor)” value is 3.52.

For the substance “GPRP 4-hydroxypiperidide (GPRP-{4‑hydroxypiperidide}) [known peptide derivative presented at the XIth American Symposium on Peptides]”, the “relative activity (amount of plasma which is inhibited with a defined amount of inhibitor)” value is listed as 1.2.
